Assay results: paper PMC4742970 (Nature Communications, 2016)

Key:
Msh2–Msh3 (Msh2HA–Msh3) [1] = target: T1, Msh2–Msh3 (Msh2HA–Msh3) (Saccharomyces cerevisiae, UniProt P25336+P25847); experiment: single-molecule diffusion on DNA curtains (TIRF); assay type: binding; details: 1 mM ADP, 50 mM NaCl, 40 mM Tris-HCl pH 8; functional effect on diffusion along homoduplex DNA
T1 construct: heterodimer overexpressed in and purified from yeast; labelled with anti-HA quantum dots in single-molecule tests
T1 sequence (P25847 1-964): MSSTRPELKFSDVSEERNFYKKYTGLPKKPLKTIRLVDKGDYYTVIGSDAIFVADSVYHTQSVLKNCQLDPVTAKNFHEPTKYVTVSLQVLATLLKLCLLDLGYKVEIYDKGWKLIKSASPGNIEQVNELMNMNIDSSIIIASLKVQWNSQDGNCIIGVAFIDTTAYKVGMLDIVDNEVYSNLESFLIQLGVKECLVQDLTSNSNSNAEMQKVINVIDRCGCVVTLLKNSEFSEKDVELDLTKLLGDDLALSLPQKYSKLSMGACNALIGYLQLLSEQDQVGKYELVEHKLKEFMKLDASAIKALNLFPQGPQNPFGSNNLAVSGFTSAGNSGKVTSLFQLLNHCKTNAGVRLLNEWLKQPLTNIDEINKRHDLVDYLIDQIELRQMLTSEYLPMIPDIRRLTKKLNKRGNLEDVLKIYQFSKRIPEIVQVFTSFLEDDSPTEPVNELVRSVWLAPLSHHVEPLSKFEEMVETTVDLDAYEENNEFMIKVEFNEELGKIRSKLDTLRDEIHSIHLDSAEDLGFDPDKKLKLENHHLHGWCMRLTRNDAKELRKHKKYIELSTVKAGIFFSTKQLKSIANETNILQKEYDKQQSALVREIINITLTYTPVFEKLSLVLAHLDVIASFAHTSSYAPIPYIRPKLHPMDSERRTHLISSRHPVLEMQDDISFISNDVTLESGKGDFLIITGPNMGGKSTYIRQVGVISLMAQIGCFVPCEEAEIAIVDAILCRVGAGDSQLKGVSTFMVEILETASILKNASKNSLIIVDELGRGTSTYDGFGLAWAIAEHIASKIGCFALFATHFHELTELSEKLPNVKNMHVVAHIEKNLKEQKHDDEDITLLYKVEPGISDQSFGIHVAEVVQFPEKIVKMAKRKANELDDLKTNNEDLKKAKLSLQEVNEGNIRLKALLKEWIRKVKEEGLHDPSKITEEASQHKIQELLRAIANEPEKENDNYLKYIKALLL
T1 sequence (P25336 1-1018): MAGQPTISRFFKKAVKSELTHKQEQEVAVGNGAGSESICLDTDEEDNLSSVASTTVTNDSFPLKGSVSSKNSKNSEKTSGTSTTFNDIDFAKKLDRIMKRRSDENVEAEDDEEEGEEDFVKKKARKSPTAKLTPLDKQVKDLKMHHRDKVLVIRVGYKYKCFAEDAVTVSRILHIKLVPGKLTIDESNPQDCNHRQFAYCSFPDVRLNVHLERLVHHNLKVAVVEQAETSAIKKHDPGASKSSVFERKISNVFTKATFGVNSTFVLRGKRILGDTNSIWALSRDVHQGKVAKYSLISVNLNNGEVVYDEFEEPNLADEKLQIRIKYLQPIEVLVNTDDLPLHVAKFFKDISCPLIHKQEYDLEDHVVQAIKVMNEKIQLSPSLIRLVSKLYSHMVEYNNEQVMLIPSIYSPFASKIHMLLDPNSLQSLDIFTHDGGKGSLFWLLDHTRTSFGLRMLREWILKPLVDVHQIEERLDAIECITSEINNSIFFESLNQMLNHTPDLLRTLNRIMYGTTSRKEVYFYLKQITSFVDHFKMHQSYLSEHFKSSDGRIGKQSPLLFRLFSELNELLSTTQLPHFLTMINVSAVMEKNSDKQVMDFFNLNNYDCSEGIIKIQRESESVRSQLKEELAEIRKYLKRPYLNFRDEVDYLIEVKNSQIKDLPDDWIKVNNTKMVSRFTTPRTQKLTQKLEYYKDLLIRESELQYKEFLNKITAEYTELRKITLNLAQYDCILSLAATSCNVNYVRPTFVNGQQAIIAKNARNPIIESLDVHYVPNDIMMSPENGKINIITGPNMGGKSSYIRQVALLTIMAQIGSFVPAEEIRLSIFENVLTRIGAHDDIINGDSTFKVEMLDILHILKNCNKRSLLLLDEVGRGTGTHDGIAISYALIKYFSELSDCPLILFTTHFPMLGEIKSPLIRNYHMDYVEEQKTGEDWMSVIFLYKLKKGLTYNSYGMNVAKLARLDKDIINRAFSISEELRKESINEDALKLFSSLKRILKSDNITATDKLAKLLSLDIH

Msh2–Msh3 (Msh2HA–Msh3) [2] = target: T1, Msh2–Msh3 (Msh2HA–Msh3); experiment: ATPase assay, gamma-32P-ATP, PEI-cellulose TLC; assay type: biochemical; details: 20-250 μM ATP, 2 mM MgCl2, pH 7.5, 30 °C, 100 nM protein, with or without 2 μM DNA
Msh2(HA)-Msh3 = Msh2(HA)-Msh3 (Saccharomyces cerevisiae, UniProt P25847;P25336 1-964;1-1018); experiment: EMSA; no antibody or QD; EMSA: 20 mM HEPES pH 7.5, 100 mM NaCl, 1 mM DTT, 40 ug/ml BSA, 2 mM MgCl2, RT; curtains: 40 mM Tris-HCl pH 8, 25-150 mM NaCl, 2 mM MgCl2, 1-2 mM DTT, 0.2 mg/ml

**Q.** Nc1ncnc2c1ncn2[C@@H]1O[C@H](COP(=O)(O)OP(=O)(O)O)[C@@H](O)[C@H]1O [ADP] was tested. Which “single-molecule diffusion on DNA curtains (TIRF)” value (Msh2–Msh3 (Msh2HA–Msh3) [1]) did it give?
**A.** Here we show that ADP and ATP also alter the interactions of the yeast Msh2–Msh3

**Q.** How did the “ATPase assay, gamma-32P-ATP, PEI-cellulose TLC” value (Msh2–Msh3 (Msh2HA–Msh3) [2]) turn out when Nc1ncnc2c1ncn2[C@@H]1O[C@H](COP(=O)(O)OP(=O)(O)OP(=O)(O)O)[C@@H](O)[C@H]1O [ATP] was run?
**A.** Gel shift and ATPase assays indicated that the QD-tagged Msh2–Msh3 retained biochemical activities

B1: 3'-ssDNA flap LS1/LS3/LS16 (mixed)
DNA 1: CACGCTACCGAATTCTGACTTGCTAGGACATCTTTGCCCACGTTGACCC
DNA 2: TCGATAGTCTCTAGATAGCATGTCCTAGCAAGTCAGAATTCGGTAGCGTG
DNA 3: GCTATCTAGAGACTATCGA
**Q.** Does B1 bind (Msh2(HA)-Msh3)?
**A.** binds
